In the experiment the test system is MDA-MB-231. As to the kind of experiment: Seahorse XF96 mitochondria stress test (OCR), MDA-MB-231. The format is cell-based. The text has this:
With the previous biological data pointing towards metabolic changes, we sought to explore further the effect 2a had on redox metabolism. The ETC is a complicated biological system that is constantly changing in response to external stress in order to achieve redox homeostasis within the cell. With the DEG data alluding to involvement of ETC genes (Fig. 9A), we then decided to look in depth at the effect of complexes on these biological parameters. We next performed oxygen consumption rate (OCR) experiments by Seahorse 96XF to quantify the effect of 2a on mitochondrial bioenergetics or stress (MitoStress) (Fig. 9B and C).[87] A series of known inhibitors of the various parts of the ETC that allow for the measurement of specific parameters were used. […] ATP linked respiration was also calculated and found to be decreased by more than 80% at 3 μM treatment (Fig. 9F). […]
For the wells that were pre-treated with NAC, a stock solution of NAC in DMEM was added at a concentration of 10 mM for 2 h prior to the addition of 2a. […] The cells were then analyzed using FACS with the FITC channel […]
Mitochondrial Metabolism Analysis with Seahorse XF96 Analysis. […] The optimum conditions were determined to be 30,000 cells/well and an FCCP injection concentration of 0.6 µM. […]

`C[N+](C)=C1[S][Au-2]2([S]1)[c]1ccccc1Cc1cccc[n+]12.F[P-](F)(F)(F)(F)F` (centres unmarked) [2a]: the “Decrease of maximal OCR” value (MDA-MB-231, 1 μM, within 50 minutes, compared to control) is “more than 25%”. Further, the “Decrease of basal OCR” value (MDA-MB-231, 3 μM, 17 minutes from injection) was “more than 20%”.

These data come from PMC8162438, “Cancer cell-selective modulation of mitochondrial respiration and metabolism by potent organogold(III) dithiocarbamates” (Chemical Science, 2020).
